Where “and” joins values, the source holds several entries; their conditions need not be identical. Identical values can stand only once. Like-named read-outs stand apart in the source and are kept apart here. Starred links: 1 amine or outer side, 2 acyl side, 3 side chain; linkers in the order of their positions; H or OH if unused. Positions of bridges follow the written chain, without caps; N, C: chain ends. Non-standard residues stand in square brackets, D forms with d. Residues, ends and D or L forms follow the SMILES beside them. ξ: configuration not given here. S5 = C=CCCC[C@](C)(N)C(=O)O; Nle = CCCC[C@H](N)C(=O)O; ξαMeC = CC(N)(CS)C(=O)O; X1 = C(=CC[*:2])C[*:1]; X2 = C(CC[*:2])C[*:1]
What was measured:
GST-Bcl-2 [1] = experiment: Kd
Experimental: Table printed on a drawing sheet, Figure 8
The patent's description of the figure: FIG. 8 depicts binding properties to GST-Bcl-2 of SP-1 and SP-35 peptidomimetic macrocycles.
First copying reader's note: The Kd values belong to the plot beside the table, titled 'Saturation Binding Curves vs. 2 µM Receptor, 1x PBS + 5 mM CHAPS, 2.5% DMSO', whose legend names the receptor as GST-Bcl-2.
Where the first naming reader finds the target: description_of_the_figure: FIG. 8 depicts binding properties to GST-Bcl-2 of SP-1 and SP-35 peptidomimetic macrocycles.

[2] = Pharmacokinetics of SP-1 and SP-35 in Rat following IV dose
From the text: Table printed on a drawing sheet, Figure 18
Title: Pharmacokinetics of SP-1 and SP-35 in Rat following IV dose
The patent's description of the figure: FIG. 18 illustrates the pharmacokinetic properties of SP-1 and SP-35 peptidomimetic macrocycles in rats.
First reader's note: The title stands over the plot above the table and applies to both: rat, IV dose.

[3] = Pepsin Stability: (E/S 1:50)
From the text: Table printed on a drawing sheet, Figure 12
(§1) Title: Pepsin Stability: (E/S 1:50)
The patent's description of the figure: FIG. 12 describes the comparative pepsin stability of SP-1 and SP-35 peptidomimetic macrocycles of the invention.
First reader's note: The title is printed over the plot below the table; the rate constants and half-lives describe degradation by pepsin, and the time points used are on the plot's Time (min) axis.

GST-Bcl-XL = target: T1, GST-Bcl-XL (Homo sapiens, UniProt Q07817); experiment: Kd
T1 construct: GST
T1 sequence (Q07817 whole entry, looked up): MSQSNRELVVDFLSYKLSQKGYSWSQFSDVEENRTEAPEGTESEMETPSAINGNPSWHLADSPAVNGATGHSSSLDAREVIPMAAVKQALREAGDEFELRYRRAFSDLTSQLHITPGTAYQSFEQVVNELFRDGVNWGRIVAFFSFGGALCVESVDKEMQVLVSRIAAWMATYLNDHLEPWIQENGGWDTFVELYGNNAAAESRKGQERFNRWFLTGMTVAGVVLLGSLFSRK
Experimental: Table printed on a drawing sheet, Figure 7
The patent's description of the figure: FIG. 7 depicts binding properties to GST-Bcl-XL of SP-1 and SP-35 peptidomimetic macrocycles.
First copying reader's note: The table stands beside a saturation binding plot (2 µM receptor, 1x PBS + 5 mM CHAPS, 2.5% DMSO) whose legend names GST-Bcl-xL as the receptor for both peptides.
Where the first naming reader finds the target: description_of_the_figure: FIG. 7 depicts binding properties to GST-Bcl-XL of SP-1 and SP-35 peptidomimetic macrocycles.

GST-Bcl-2 [4] = experiment: Kd; remark: listed apart in the source
Experimental: Table printed on a drawing sheet, Figure 5
The patent's description of the figure: FIG. 5 depicts binding properties to GST-Bcl-2 of SP-4 and SP-54 peptidomimetic macrocycles.
First copying reader's note: Kd values belong to the plot beside the table, titled 'Saturation Binding Curves vs. 2 µM Receptor, 1x PBS + 5 mM CHAPS, 2.5% DMSO', with GST-Bcl-2 as the receptor.
Where the first naming reader finds the target: description_of_the_figure: FIG. 5 depicts binding properties to GST-Bcl-2 of SP-4 and SP-54 peptidomimetic macrocycles.

[5] = Pharmacokinetics of SP-4 and SP-54 in Rats following IV dose
From the text: Table printed on a drawing sheet, Figure 19
Title: Pharmacokinetics of SP-4 and SP-54 in Rats following IV dose
The patent's description of the figure: FIG. 19 illustrates the pharmacokinetic properties of SP-4 and SP-54 peptidomimetic macrocycles in rats.
First reader's note: Pharmacokinetic parameters in rats after IV dosing; the table is printed under a concentration-time plot that is not copied.

GST-Mcl-1 = experiment: Kd
Experimental: Table printed on a drawing sheet, Figure 4
The patent's description of the figure: FIG. 4 depicts binding properties to GST-Mcl-1 of SP-4 and SP-54 peptidomimetic macrocycles.
First copying reader's note: Kd values belong to the adjacent saturation binding plot (stapled peptides + GST-Mcl-1, 2 µM receptor, 1x PBS + 5 mM CHAPS, 2.5% DMSO).
Where the first naming reader finds the target: description_of_the_figure: FIG. 4 depicts binding properties to GST-Mcl-1 of SP-4 and SP-54 peptidomimetic macrocycles.

[6] = Pepsin Stability: (E/S 1:50); remark: listed apart in the source
From the text: Table printed on a drawing sheet, Figure 13
as §1
The patent's description of the figure: FIG. 13 describes the comparative pepsin stability of SP-36 and SP-37 peptidomimetic macrocycles of the invention.
First reader's note: Each peptide appears twice (duplicate runs); the title is printed between the table and the plot of the same figure, and NC/NA are not defined on the sheet.

[7] = Pepsin Stability: (E/S 1:50); remark: listed apart in the source
From the text: Table printed on a drawing sheet, Figure 14
as §1
The patent's description of the figure: FIG. 14 describes the comparative pepsin stability of SP-33 and SP-34 peptidomimetic macrocycles of the invention.
First reader's note: The title is the heading of the plot printed under the table; the table gives the rate constants and half-lives of the pepsin digestion, fitted over the named time points.

[8] = Pharmacokinetics of SP-43 and SP-42 in Rat following IV dose; settings: in vivo
From the text: Table printed on a drawing sheet, Figure 20
Title: Pharmacokinetics of SP-43 and SP-42 in Rat following IV dose
The patent's description of the figure: FIG. 20 illustrates the pharmacokinetic properties of SP-42 and SP-43 peptidomimetic macrocycles in rats.
First reader's note: Pharmacokinetic parameters in rat after an IV dose; the table stands under a concentration-time plot that is not copied.

CCCC[C@H](NC(=O)[C@]1(C)CCCC=CCCC[C@](C)(NC(=O)[C@H](C)NC(=O)[C@H](CC(C)C)NC(=O)[C@H](Cc2c[nH]cn2)NC(=O)[C@H](CCCNC(=N)N)NC(=O)[C@H](C)NC(=O)[C@@H](NC(=O)[C@H](CC(N)=O)NC(=O)[C@H](CCCNC(=N)N)NC(=O)[C@@H](NC(=O)[C@@H](NC(=O)[C@H](CC(=O)O)NC(C)=O)[C@@H](C)CC)[C@@H](C)CC)[C@@H](C)CC)C(=O)N[C@@H](C(C)C)C(=O)NCC(=O)N[C@@H](CC(=O)O)C(=O)N1)C(=O)N[C@@H](CC(=O)O)C(=O)N[C@@H](CCCNC(=N)N)C(=O)N[C@@H](CO)C(=O)N[C@H](C(N)=O)[C@@H](C)CC [SP-1, Ac-DIIRNIARHLA$VGD$NleDRSI-NH2] (Ac-DIIRNIARHLA[S5]VGD[S5][Nle]DRSI-NH2; staple 12-16)
Kd (GST-Bcl-2 [1]): 1600 nM | AUC,inf [2]: 72000 ng·h/mL | Vss [2]: 0.098 L/kg | Vz [2]: 0.274 L/kg | Cmax ([2]; rat, in vivo, iv): 37000 ng/mL | MRT ([2]; rat, in vivo, iv): 2.2 h | half-life ([2]; rat, in vivo, iv): 4.3 h | K1 min^-1 [3]: 0.0084 min⁻¹ | half-life^1 [3]: 1.38 h | Kd (GST-Bcl-XL): 43 nM

CC[C@H](C)[C@H](NC(C)=O)C(=O)N[C@@H](Cc1c[nH]c2ccccc12)C(=O)N[C@H](C(=O)N[C@@H](C)C(=O)N[C@@H](CCC(N)=O)C(=O)N[C@@H](CCC(=O)O)C(=O)N[C@@H](CC(C)C)C(=O)N[C@@H](CCCNC(=N)N)C(=O)N[C@H]1CCCC=CCCC[C@@H](C(=O)N[C@@H](Cc2ccccc2)C(=O)N[C@@H](CC(N)=O)C(=O)N[C@@H](C)C(=O)N[C@@H](Cc2ccc(O)cc2)C(=O)N[C@@H](Cc2ccc(O)cc2)C(=O)N[C@@H](C)C(=O)N[C@@H](CCCNC(=N)N)C(=O)N[C@@H](CCCNC(=N)N)C(N)=O)NC(=O)[C@H](CC(=O)O)NC(=O)CNC(=O)[C@H]([C@@H](C)CC)NC1=O)[C@@H](C)CC [SP-54, Ac-IWIAQELR#IGD#FNAYYARR-NH2]
Kd (GST-Bcl-2 [4]): 97 nM | AUC,inf [5]: 12700 ng·h/mL | Cl [5]: 4.02 mL/min/kg | Vss [5]: 0.126 L/kg | Vz [5]: 1.206 L/kg | Cmax ([5]; rat, in vivo, iv): 27100 ng/mL | MRT ([5]; rat, in vivo, iv): 0.52 h | half-life ([5]; rat, in vivo, iv): 1 h | Kd (GST-Mcl-1): 22 nM

CCCC[C@H](NC(=O)[C@@H]1CSCC=CCSC[C@H](NC(=O)[C@H](C)NC(=O)[C@H](CC(C)C)NC(=O)[C@H](Cc2c[nH]cn2)NC(=O)[C@H](CCCNC(=N)N)NC(=O)[C@H](C)NC(=O)[C@@H](NC(=O)[C@H](CC(N)=O)NC(=O)[C@H](CCCNC(=N)N)NC(=O)[C@@H](NC(=O)[C@@H](NC(=O)[C@H](CC(=O)O)NC(C)=O)[C@@H](C)CC)[C@@H](C)CC)[C@@H](C)CC)C(=O)N[C@@H](C(C)C)C(=O)NCC(=O)N[C@@H](CC(=O)O)C(=O)N1)C(=O)N[C@@H](CC(=O)O)C(=O)N[C@@H](CCCNC(=N)N)C(=O)N[C@@H](CO)C(=O)N[C@H](C(N)=O)[C@@H](C)CC [SP-36, Ac-DIIRNIARHLA#cVGD#cNleDRSI-NH2] (Ac-DIIRNIARHLACVGDC[Nle]DRSI-NH2; linker 12-16 via X1)
K1 min^-1 [6]: 0.095 min⁻¹ and 0.082 min⁻¹ | K2 min^-1 [6]: 0.0290 min⁻¹ and 0.024 min⁻¹ | half-life^1 [6]: 7.3 min and 8.5 min | half-life^2 [6]: 0.4 h and 0.483 h

CCCC[C@H](NC(=O)[C@@H]1CSCCCCSC[C@H](NC(=O)[C@H](C)NC(=O)[C@H](CC(C)C)NC(=O)[C@H](Cc2c[nH]cn2)NC(=O)[C@H](CCCNC(=N)N)NC(=O)[C@H](C)NC(=O)[C@@H](NC(=O)[C@H](CC(N)=O)NC(=O)[C@H](CCCNC(=N)N)NC(=O)[C@@H](NC(=O)[C@@H](NC(=O)[C@H](CC(=O)O)NC(C)=O)[C@@H](C)CC)[C@@H](C)CC)[C@@H](C)CC)C(=O)N[C@@H](C(C)C)C(=O)NCC(=O)N[C@@H](CC(=O)O)C(=O)N1)C(=O)N[C@@H](CC(=O)O)C(=O)N[C@@H](CCCNC(=N)N)C(=O)N[C@@H](CO)C(=O)N[C@H](C(N)=O)[C@@H](C)CC [SP-33, Ac-DIIRNIARHLA#c4VGD#c4NleDRSI-NH2] (Ac-DIIRNIARHLACVGDC[Nle]DRSI-NH2; linker 12-16 via X2)
K1 min^-1 [7]: 0.054 min⁻¹ | K2 min^-1 [7]: 0.0046 min⁻¹ | half-life^1 [7]: 0.217 h | half-life^2 [7]: 2.5 h

CCCC[C@H](NC(=O)C1(C)CSCCCCSCC(C)(NC(=O)[C@H](C)NC(=O)[C@H](CC(C)C)NC(=O)[C@H](Cc2c[nH]cn2)NC(=O)[C@H](CCCNC(=N)N)NC(=O)[C@H](C)NC(=O)[C@@H](NC(=O)[C@H](CC(N)=O)NC(=O)[C@H](CCCNC(=N)N)NC(=O)[C@@H](NC(=O)[C@@H](NC(=O)[C@H](CC(=O)O)NC(C)=O)[C@@H](C)CC)[C@@H](C)CC)[C@@H](C)CC)C(=O)N[C@@H](C(C)C)C(=O)NCC(=O)N[C@@H](CC(=O)O)C(=O)N1)C(=O)N[C@@H](CC(=O)O)C(=O)N[C@@H](CCCNC(=N)N)C(=O)N[C@@H](CO)C(=O)N[C@H](C(N)=O)[C@@H](C)CC (stereo partly shown) [SP-34, Ac-DIIRNIARHLA$c4VGD$c4NleDRSI-NH2] (Ac-DIIRNIARHLA[ξαMeC]VGD[ξαMeC][Nle]DRSI-NH2; linker 12-16 via X2)
K1 min^-1 [7]: 0.0019 min⁻¹ | half-life^1 [7]: 6 h

CC(=O)N[C@@H](CCC(N)=O)C(=O)N[C@@H](CO)C(=O)N[C@@H](CCC(N)=O)C(=O)N[C@@H](CCC(N)=O)C(=O)N[C@H](C(=O)N[C@@H](Cc1ccccc1)C(=O)N[C@@H]1CCCCCCC=CCCC[C@@H](C(=O)N[C@@H](CCC(N)=O)C(=O)N[C@@H](CC(N)=O)C(N)=O)NC(=O)[C@H](CC(C)C)NC(=O)[C@H](CC(C)C)NC(=O)[C@H](CCCNC(=N)N)NC(=O)[C@H](Cc2c[nH]c3ccccc23)NC(=O)[C@H](CC(C)C)NC(=O)[C@H](CC(N)=O)NC1=O)[C@@H](C)O [SP-42, Ac-QSQQTF#r8NLWRLL#QN-NH2]
Cmax [8]: 41200 ng/mL | MRT [8]: 1.1 h

Reference: patent publication US20110144303A1, “Biologically Active Peptidomimetic Macrocycles” (AILERON Therapeutics, Inc., priority 2008, published 2011)
